From ChEMBL document CHEMBL1201862, “PubChem BioAssay data set” (2004)
Activity calls are given as the source filed them.

Key:
[1] = molecular target: T1, Zinc finger protein mex-5 (Caenorhabditis elegans, UniProt Q9XUB2); assay: MEX-5/TCR-2 RNA interaction inhibitors, dose response, biochemical, C. elegans, fluorescence polarization (AID 1960)
T1 sequence (Q9XUB2 whole entry): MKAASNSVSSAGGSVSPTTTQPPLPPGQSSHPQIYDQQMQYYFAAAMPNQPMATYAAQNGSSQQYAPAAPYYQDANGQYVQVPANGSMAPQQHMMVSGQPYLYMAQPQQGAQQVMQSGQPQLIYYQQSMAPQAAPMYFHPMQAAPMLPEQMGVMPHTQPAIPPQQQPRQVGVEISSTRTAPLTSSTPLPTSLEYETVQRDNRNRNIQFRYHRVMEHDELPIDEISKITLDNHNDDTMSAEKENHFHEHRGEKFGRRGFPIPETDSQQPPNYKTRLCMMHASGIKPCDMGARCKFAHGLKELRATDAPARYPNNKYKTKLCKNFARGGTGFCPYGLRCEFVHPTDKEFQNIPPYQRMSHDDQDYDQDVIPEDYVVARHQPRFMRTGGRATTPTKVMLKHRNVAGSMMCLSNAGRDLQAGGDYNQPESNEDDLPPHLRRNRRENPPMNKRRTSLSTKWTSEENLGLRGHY

[2] = test system: Streptococcus sp. 'group A'; assay: growth inhibition of control SK(-) GAS strain, dose response, counter-screen for streptokinase expression inhibitor project, luminescence, kanamycin, BacTiterGlo, confirmation (AID 1900); format: functional, organism-based
[3] = molecular target: T2, RNA-binding protein pos-1 (Caenorhabditis elegans, UniProt G5EF15); assay: inhibitors of POS-1/mex-3 RNA binding, dose response, biochemical, fluorescence polarization (AID 1964);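 note: purified POS-1 fused to maltose binding protein made in E. coli; potency of compounds blocking POS-1 binding to fluorescent RNA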
T2 sequence (G5EF15 whole entry): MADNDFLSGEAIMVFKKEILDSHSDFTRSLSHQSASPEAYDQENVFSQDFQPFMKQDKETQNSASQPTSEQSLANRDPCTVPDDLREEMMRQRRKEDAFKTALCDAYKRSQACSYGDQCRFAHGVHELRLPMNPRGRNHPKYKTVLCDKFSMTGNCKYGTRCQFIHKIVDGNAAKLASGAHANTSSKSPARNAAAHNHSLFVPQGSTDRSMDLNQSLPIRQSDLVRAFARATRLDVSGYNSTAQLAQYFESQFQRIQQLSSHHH

Streptococcus = assay: Group A Streptococcus viability loss, dose response, counter-screen for streptokinase expression inhibitor project, luminescence, BacTiterGlo (AID 1915); format: functional, organism-based;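 note: potency for reduction of bacterial viability or growth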
Nonstructural protein 1 = Nonstructural protein 1 (Influenza A virus, UniProt Q194T2); format: functional, Influenza A virus (A/California/07/2009(H1N1))
[4] = cytotoxicity in KRAS-transformed pancreatic duct cells, primary screen, cell-based, fluorescence, HTS (AID 431); format: functional; details: Homo sapiens;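 note: cell line used: HPDE-C7K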
[5] = cytotoxicity in HPDE-C7 cells, cell-based, fluorescence, HTS (AID 430); format: functional; details: Homo sapiens
[6] = molecular target: T3, Glutathione-S-transferase (Schistosoma japonicum, UniProt Q26513); assay: biotin-GST/anti-GST TR-FRET signal inhibitors, dose response, artefact control for Vif-APOBEC3G degradation inhibitor project, biochemical (AID 1117362); format: functional
T3 sequence (Q26513 whole entry): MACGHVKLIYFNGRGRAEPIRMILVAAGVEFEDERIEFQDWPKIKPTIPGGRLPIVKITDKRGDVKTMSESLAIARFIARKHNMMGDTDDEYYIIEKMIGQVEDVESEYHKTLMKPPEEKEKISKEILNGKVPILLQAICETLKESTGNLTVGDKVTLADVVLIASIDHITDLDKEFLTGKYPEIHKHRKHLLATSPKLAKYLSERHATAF

Protein Tat = molecular target: T4, Protein Tat (Human immunodeficiency virus type 1 group M subtype B (isolate HXB2)(HIV-1), UniProt P04608); format: functional;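 note: tat binding to TAR RNA read out by fluorescence polarization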
T4 sequence (P04608 whole entry): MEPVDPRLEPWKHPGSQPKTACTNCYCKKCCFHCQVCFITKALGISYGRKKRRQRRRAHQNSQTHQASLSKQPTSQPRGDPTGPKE

[7] = THP-1 cell cytotoxicity, dose response, cytotoxicity control for Vif-APOBEC3G degradation inhibitor project, THP-1 cells (AID 1117359); format: functional; details: Human immunodeficiency virus 1, THP-1
CHO-K1 = assay: (§1) Counterscreen for antagonists of the orexin 1 receptor (OX1R; HCRTR1): Homogeneous time resolved fluorescence (HTRF)-based cell-based dose response assay to identify antagonists of the parental CHO-K1 cell line. [Related pubchem assays (depositor defined):AID434989, AID435008, AID463079, AID485270, AID492963, AID492964, AID492965, AID493232, AID504699, AID504701]; format: functional; details: Cricetulus griseus
[8] = molecular target: T5, Orexin/Hypocretin receptor type 1 (Homo sapiens, UniProt O43613); assay: Homogeneous Time Resolved Fluorescence (HTRF)-based cell-based high throughput dose response assay for antagonists of the orexin 1 receptor (OX1R; HCRTR1). [Related pubchem assays (depositor defined):AID434989, AID435008, AID463079, AID485270, AID492963, AID492964, AID492965, AID493232, AID504717, AID504718]; format: functional
T5 sequence (O43613 whole entry): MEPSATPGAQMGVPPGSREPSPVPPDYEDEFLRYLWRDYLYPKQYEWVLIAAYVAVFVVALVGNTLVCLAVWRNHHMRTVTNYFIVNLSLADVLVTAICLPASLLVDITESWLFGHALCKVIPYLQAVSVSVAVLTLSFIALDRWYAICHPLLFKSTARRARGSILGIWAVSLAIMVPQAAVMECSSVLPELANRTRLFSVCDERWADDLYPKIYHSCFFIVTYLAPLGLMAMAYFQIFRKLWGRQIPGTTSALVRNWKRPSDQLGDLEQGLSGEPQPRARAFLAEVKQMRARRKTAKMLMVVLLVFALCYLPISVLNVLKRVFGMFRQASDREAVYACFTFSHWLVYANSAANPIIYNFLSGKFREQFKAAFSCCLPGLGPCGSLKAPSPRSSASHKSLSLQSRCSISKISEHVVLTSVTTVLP

[9] = molecular target: T5, Orexin/Hypocretin receptor type 1; assay: Fluorescence-based cell-based high throughput dose response assay for antagonists of the orexin 1 receptor (OX1R; HCRTR1). [Related pubchem assays (depositor defined):AID434989, AID435008, AID463079, AID485270, AID492963, AID492964, AID492965, AID493232, AID504717, AID504718]; format: functional
[10] = as §1, with “Fluorescence-based” for “Homogeneous time resolved fluorescence (HTRF)-based”, “cell-based high throughput” for “cell-based”, “CHO” for “CHO-K1”; format: functional
fMet-Leu-Phe receptor = molecular target: T6, fMet-Leu-Phe receptor (Homo sapiens, UniProt P21462); assay: FPR ligands, dose response (AID 519); format: functional
T6 sequence (P21462 whole entry): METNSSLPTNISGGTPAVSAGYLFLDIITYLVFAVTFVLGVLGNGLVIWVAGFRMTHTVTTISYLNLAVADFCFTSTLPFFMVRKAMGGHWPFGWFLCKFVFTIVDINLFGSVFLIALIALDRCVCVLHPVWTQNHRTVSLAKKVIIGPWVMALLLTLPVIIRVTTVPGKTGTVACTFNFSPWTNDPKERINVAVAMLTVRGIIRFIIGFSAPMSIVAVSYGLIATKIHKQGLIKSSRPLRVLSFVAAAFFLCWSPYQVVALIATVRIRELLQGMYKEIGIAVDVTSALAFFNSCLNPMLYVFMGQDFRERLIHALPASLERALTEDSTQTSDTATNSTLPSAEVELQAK

Fatty acid synthase [11] = molecular target: T7, Fatty acid synthase (Homo sapiens, UniProt P49327); assay: FAS thioesterase domain inhibitors, dose response, biochemical, endpoint fluorescence intensity, uHTS hits (AID 624327); format: functional;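 note: fluorescence from hydrolysis of an O-methyl fluorescein acyl ester substrate by the enzyme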
Fatty acid synthase [12] = molecular target: T7, Fatty acid synthase; assay: FAS thioesterase domain inhibitors, dose response, biochemical, kinetic fluorescence intensity (AID 624326); format: functional;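 note: rate of fluorescence rise from hydrolysis of a fluorogenic O-methyl fluorescein ester substrate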
[13] = molecular target: Induced myeloid leukemia cell differentiation protein Mcl-1 (Homo sapiens, UniProt Q07820); format: functional
[14] = P. falciparum Dd2 growth inhibitors, dose response, SYBR Green, cherry-picked samples (AID 1159567); format: functional, cell-based

T7 sequence (P49327 whole entry, the tested form may be a part): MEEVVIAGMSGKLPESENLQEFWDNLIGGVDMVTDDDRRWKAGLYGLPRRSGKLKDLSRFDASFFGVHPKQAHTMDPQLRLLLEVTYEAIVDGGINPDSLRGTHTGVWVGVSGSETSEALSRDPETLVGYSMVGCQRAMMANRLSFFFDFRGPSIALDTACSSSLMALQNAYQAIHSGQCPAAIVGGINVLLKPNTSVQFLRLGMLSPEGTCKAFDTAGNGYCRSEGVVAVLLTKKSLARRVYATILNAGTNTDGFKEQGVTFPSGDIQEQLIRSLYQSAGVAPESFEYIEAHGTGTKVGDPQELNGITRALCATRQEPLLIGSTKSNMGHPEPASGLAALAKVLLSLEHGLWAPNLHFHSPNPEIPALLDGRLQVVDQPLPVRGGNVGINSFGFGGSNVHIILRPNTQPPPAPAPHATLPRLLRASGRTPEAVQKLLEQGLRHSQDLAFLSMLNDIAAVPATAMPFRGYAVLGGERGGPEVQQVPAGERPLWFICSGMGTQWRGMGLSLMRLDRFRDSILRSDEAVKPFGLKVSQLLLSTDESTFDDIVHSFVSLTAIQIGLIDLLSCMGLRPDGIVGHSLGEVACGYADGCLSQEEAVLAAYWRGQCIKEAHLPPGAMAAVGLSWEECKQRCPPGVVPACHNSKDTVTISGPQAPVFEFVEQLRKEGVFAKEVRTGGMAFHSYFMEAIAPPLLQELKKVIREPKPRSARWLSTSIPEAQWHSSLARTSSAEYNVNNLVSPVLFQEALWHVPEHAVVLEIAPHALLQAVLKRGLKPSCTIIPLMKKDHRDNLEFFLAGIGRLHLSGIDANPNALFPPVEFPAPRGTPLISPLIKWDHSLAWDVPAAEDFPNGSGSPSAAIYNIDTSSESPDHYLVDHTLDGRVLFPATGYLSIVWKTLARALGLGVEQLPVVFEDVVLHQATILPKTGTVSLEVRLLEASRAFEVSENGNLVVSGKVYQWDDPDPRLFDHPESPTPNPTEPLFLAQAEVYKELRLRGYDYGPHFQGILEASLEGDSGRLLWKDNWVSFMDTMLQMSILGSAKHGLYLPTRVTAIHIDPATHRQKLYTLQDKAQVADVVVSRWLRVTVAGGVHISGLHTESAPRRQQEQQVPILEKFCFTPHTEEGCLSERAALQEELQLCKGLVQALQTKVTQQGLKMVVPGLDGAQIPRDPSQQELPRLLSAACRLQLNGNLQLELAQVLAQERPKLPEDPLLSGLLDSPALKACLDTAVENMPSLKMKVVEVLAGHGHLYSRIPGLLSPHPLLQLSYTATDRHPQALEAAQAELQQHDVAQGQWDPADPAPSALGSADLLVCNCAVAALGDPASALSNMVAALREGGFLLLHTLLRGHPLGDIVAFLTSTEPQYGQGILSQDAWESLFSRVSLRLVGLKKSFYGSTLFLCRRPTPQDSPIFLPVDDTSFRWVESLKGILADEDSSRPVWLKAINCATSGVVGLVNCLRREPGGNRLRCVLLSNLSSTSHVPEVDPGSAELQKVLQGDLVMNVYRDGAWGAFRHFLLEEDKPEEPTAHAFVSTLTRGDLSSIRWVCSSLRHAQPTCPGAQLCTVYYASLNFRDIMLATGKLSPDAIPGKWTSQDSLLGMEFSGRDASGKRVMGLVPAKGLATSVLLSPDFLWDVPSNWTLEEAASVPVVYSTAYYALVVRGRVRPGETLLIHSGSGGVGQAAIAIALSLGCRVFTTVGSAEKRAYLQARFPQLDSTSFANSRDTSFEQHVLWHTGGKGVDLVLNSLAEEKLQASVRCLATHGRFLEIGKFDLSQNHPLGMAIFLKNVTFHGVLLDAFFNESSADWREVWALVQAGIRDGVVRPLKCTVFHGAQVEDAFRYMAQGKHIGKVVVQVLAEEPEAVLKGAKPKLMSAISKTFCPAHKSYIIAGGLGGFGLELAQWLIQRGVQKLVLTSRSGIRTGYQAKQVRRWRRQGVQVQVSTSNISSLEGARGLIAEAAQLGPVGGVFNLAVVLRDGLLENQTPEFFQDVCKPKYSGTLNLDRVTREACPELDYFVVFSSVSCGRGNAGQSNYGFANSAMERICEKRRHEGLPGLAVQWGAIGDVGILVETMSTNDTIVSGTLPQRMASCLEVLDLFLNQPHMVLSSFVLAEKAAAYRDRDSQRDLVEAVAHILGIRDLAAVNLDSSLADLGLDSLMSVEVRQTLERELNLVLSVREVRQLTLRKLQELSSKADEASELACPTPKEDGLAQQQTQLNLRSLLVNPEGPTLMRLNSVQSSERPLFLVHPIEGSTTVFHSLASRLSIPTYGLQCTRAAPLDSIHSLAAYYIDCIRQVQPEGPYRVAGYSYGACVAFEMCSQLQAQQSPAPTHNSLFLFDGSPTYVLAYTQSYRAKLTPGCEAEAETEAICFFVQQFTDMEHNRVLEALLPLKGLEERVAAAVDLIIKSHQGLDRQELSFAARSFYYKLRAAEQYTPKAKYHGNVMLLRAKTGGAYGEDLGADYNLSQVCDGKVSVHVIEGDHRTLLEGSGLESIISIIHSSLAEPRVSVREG
Chain of Nonstructural protein 1 (Q194T2 whole entry): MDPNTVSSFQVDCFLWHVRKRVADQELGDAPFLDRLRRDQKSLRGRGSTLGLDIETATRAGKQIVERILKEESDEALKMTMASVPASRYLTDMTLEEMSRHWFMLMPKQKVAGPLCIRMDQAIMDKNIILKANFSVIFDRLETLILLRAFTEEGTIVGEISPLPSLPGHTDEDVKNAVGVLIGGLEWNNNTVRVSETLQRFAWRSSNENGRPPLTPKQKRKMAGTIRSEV
Chain of Induced myeloid leukemia cell differentiation protein Mcl-1 (Q07820 whole entry): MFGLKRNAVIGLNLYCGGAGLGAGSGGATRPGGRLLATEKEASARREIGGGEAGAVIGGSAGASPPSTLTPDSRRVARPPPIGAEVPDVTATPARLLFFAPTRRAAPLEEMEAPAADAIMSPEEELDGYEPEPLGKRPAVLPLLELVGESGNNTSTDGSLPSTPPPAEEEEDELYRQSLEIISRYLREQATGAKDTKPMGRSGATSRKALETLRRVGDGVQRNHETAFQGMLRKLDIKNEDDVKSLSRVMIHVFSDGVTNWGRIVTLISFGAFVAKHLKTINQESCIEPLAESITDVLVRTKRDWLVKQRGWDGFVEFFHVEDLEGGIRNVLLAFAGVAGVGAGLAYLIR

With `Cc1ncc(CO)c(/C=N/NC(=O)c2cc(Br)ccc2O)c1O` the EC50 [1] was 5.72 µM (active), the EC50 [2] was 1.39 µM (active) and the EC50 [3] was > 300 µM (not active). For the same molecule, the EC50 (Streptococcus) was 1.06 µM (active) and the IC50 (Nonstructural protein 1) was 11.3 µM (active).
With `Nc1ccc(N2CCCCCC2)cc1` the EC50 [4] was 15.4 µM (active), the EC50 [5] was 13.3 µM (active) and the IC50 [6] was 44.5 µM (active). The IC50 (Protein Tat) was 11.8 µM (inconclusive) and the CC50 [7] was 13.3 µM (active).
With `O=C1N[C@@H](c2ccccc2)COC(=O)[C@@H](Cc2ccc(F)cc2)C/C=C\C[C@@H]1CC(=O)N(CCO)Cc1ccccc1` the IC50 (CHO-K1) was > 66.2 µM (inactive), the IC50 [8] was 12 µM (inactive) and the IC50 [9] was 13.8 µM (inactive). For the same molecule, the IC50 [10] was > 49.7 µM (inactive).
For `Fc1ccc(-c2nnc3ccc(N4CCCC4)nn23)cc1`, the Ki (fMet-Leu-Phe receptor) was > 66.7 µM (inactive).
For `CCOC(=O)CC(NC(=O)c1cc2ccccc2oc1=O)c1cccc([N+](=O)[O-])c1` (stereo not drawn), the IC50 (Fatty acid synthase [11]) was 16.7 µM (active) and the IC50 (Fatty acid synthase [12]) was 15.5 µM (active).
With `Cc1cc2oc(C(=O)NC3CCS(=O)(=O)C3)c(C)c2cc1C` (stereo not drawn) the Ki (fMet-Leu-Phe receptor) was > 66.7 µM (inactive).
In the case of `COc1ccc([N+](=O)[O-])cc1NC(=O)CCC(=O)c1cccs1`, the IC50 (Fatty acid synthase [11]) was 9.16 µM (active) and the IC50 (Fatty acid synthase [12]) was 9.62 µM (active).
With `Cc1ccccc1/C(O)=C(\C#N)N=Nc1c(C)n(C)n(-c2ccccc2)c1=O` the IC50 (Nonstructural protein 1) was 10.9 µM (active).
With `CC1CC1C(=O)OCC(=O)Nc1ccc2[nH]c(O)nc2c1` (stereo not drawn) the IC50 [13] was 5.94 µM (active).
In the case of `C[C@@H]1CN([C@H](C)CO)C(=O)c2cc(-c3ccc(C#N)cc3)cnc2O[C@H]1CN(C)C(=O)Nc1ccc(C(F)(F)F)cc1`, the AC50 [14] was 21.2 µM (active).
